Assay results: patent US11708348B2, “Protease inhibitors for treatment of coronavirus infections” (The Scripps Research Institute, priority 2021, dated 2023)
Where two headings read alike, the source gives them in different places.

System: SARS-CoV-2 strain USA-WA1/2020
Assay: microbe, parasite or virus in culture
Type: cell-based
Details: Severe acute respiratory syndrome coronavirus 2, HeLa-ACE2, 24 h, HeLa-ACE2 cells, SARS-CoV-2 infection, 24 h, read-out: EC50, uM (Hela)

SMILES | EC50 (class symbols) | EC50 (bound printed in cell)
CC(C)C[C@H](NC(=O)C(=O)NC1(C(F)(F)F)CC1)C(=O)N[C@@H](C[C@@H]1CCNC1=O)C(=O)COC(F)(F)F [Compound 237, N1-((S)-4-methyl-1-oxo-1-(((S)-3-oxo-1-((S)-2-oxopyrrolidin-3-yl)-4-(trifluoromethoxy)butan-2-yl)amino)pentan-2-yl)-N2-(1-(trifluoromethyl)-cyclopropyl)oxalamide] | < 0.05 µM | –
COCC1(NC(=O)C(=O)N[C@@H](CC2CC2)C(=O)N[C@@H](C[C@@H]2CCNC2=O)C(=O)COC(F)(F)F)COC1 [Compound 238, N1-((S)-3-cyclopropyl-1-oxo-1-(((S)-3-oxo-1 ((S)-2-oxopyrrolidin-3-yl)-4-(trifluoromethoxy)butan-2-yl)amino)propan-2-yl)-N2-(3-(methoxymethyl)oxetan-3-yl)oxalamide] | 0.2 to 0.5 µM | –
CC(C)C[C@H](NC(=O)C(N)=O)C(=O)N[C@@H](C[C@@H]1CCNC1=O)C(=O)COC(F)(F)F [Compound 239, N1-((S)-4-methyl-1-oxo-1-(((S)-3-oxo-1-((S)-2-oxopyrrolidin-3-yl)-4-(trifluoromethoxy)butan-2-yl)amino)pentan-2-yl)oxalamide] | – | > 1 µM
CC(C)C[C@H](NC(=O)C(=O)NC1CC2(COC2)C1)C(=O)N[C@@H](C[C@@H]1CCNC1=O)C(=O)COC(F)(F)F [Compound 240, N1-((S)-4-methyl-1-oxo-1-(((S)-3-oxo-1-((S)-2-oxopyrrolidin-3-yl)-4-(trifluoromethoxy)butan-2-yl)amino)pentan-2-yl)-N2-(2-oxaspiro[3.3]heptan-6-yl)oxalamide] | 0.05 to 0.2 µM | –
CC(C)C[C@H](NC(=O)C(=O)NC1CC2(C1)CC(F)(F)C2)C(=O)N[C@@H](C[C@@H]1CCNC1=O)C(=O)COC(F)(F)F [Compound 241, N1-(6,6-difluorospiro-[3.3]heptan-2-yl)-N2-((S)-4-methyl-1-oxo-1-(((S)-3-oxo-1-((S)-2-oxopyrrolidin-3-yl)-4-(trifluoromethoxy)butan-2-yl)amino)pentan-2-yl)oxalamide] | < 0.05 µM | –
COc1cccc(NC(=O)C(=O)N[C@@H](Cc2cccc(F)c2)C(=O)N[C@@H](C[C@@H]2CCNC2=O)C(=O)COC(F)(F)F)c1 [Compound 242, N1-((S)-3-(3-fluorophenyl)-1-oxo-1-(((S)-3-oxo-1-((S)-2-oxopyrrolidin-3-yl)-4-(trifluoromethoxy)butan-2-yl)amino)propan-2-yl)-N2-(3-methoxy-phenyl)oxalamide] | < 0.05 µM | –
O=C(Nc1ccccc1F)C(=O)N[C@@H](Cc1cccc(F)c1)C(=O)N[C@@H](C[C@@H]1CCNC1=O)C(=O)COC(F)(F)F [Compound 243, N1-(2-fluorophenyl)-N2-((S)-3-(3-fluorophenyl)-1-oxo-1-(((S)-3-oxo-1-((S)-2-oxopyrrolidin-3-yl)-4-(trifluoromethoxy)butan-2-yl)amino)propan-2-yl)oxalamide] | < 0.05 µM | –
CC(C)C[C@H](NC(=O)C(=O)NC1COC1)C(=O)N[C@@H](C[C@@H]1CCNC1=O)C(=O)COC(F)(F)F [Compound 244, N1-((S)-4-methyl-1-oxo-1-(((S)-3-oxo-1-((S)-2-oxopyrrolidin-3-yl)-4-(trifluoromethoxy)butan-2-yl)amino)pentan-2-yl)-N2-(oxetan-3-yl)oxalamide] | 0.05 to 0.2 µM | –
CC(C)C[C@H](NC(=O)C(=O)NC1(C)CC1)C(=O)N[C@@H](C[C@@H]1CCCNC1=O)C(=O)COC(F)(F)F [Compound 245, N1-((S)-4-methyl-1-oxo-1-(((S)-3-oxo-1-((S)-2-oxopiperidin-3-yl)-4-(trifluoromethoxy)butan-2-yl)amino)pentan-2-yl)-N2-(1-methylcyclo-propyl)oxalamide] | < 0.05 µM | –
CC(C)C[C@H](NC(=O)C(=O)NC(C)(C)C(F)F)C(=O)N[C@@H](C[C@@H]1CCNC1=O)C(=O)COC(F)(F)F [Compound 246, N1-(1,1-difluoro-2-methylpropan-2-yl)-N2-((S)-4-methyl-1-oxo-1-(((S)-3-oxo-1-((S)-2-oxopyrrolidin-3-yl)-4-(trifluoromethoxy)butan-2-yl)amino)pentan-2-yl)oxalamide] | < 0.05 µM | –
CC(C)C[C@H](NC(=O)C1COCCO1)C(=O)N[C@@H](C[C@@H]1CCNC1=O)C(=O)COC(F)(F)F (stereo partly drawn) [Compound 247, N-((S)-4-methyl-1-oxo-1-(((S)-3-oxo-1-((S)-2-oxopyrrolidin-3-yl)-4-(trifluoromethoxy)butan-2-yl)amino)pentan-2-yl)-1,4-dioxane-2-carboxamide] | 0.05 to 0.2 µM | –
CC(C)C[C@H](NC(=O)c1cc2ncccc2[nH]1)C(=O)N[C@@H](C[C@@H]1CCNC1=O)C(=O)COC(F)(F)F [Compound 248, N-((S)-4-methyl-1-oxo-1-(((S)-3-oxo-1-((S)-2-oxopyrrolidin-3-yl)-4-(trifluoromethoxy)butan-2-yl)amino)pentan-2-yl)-1H-pyrrolo[3,2-b]pyridine-2-carboxamide] | 0.2 to 0.5 µM | –
CC(C)C[C@H](NC(=O)c1c[nH]c2ncccc12)C(=O)N[C@@H](C[C@@H]1CCNC1=O)C(=O)COC(F)(F)F [Compound 249, N-((S)-4-methyl-1-oxo-1-(((S)-3-oxo-1-((S)-2-oxopyrrolidin-3-yl)-4-(trifluoromethoxy)butan-2-yl)amino)pentan-2-yl)-1H-pyrrolo[2,3-b]pyridine-3-carboxamide] | 0.2 to 0.5 µM | –
CC1(NC(=O)C(=O)N[C@@H](Cc2ccc(F)cc2)C(=O)N[C@@H](C[C@@H]2CCNC2=O)C(=O)COC(F)(F)F)CC1 [Compound 250, N1-((S)-3-(4-fluorophenyl)-1-oxo-1-(((S)-3-oxo-1-((S)-2-oxopyrrolidin-3-yl)-4-(trifluoromethoxy)butan-2-yl)amino)propan-2-yl)-N2-(1-methylcyclopropyl)-oxalamide] | < 0.05 µM | –
CC(C)C[C@H](NC(=O)C(=O)NC12CCC(F)(CC1)CC2)C(=O)N[C@@H](C[C@@H]1CCNC1=O)C(=O)COC(F)(F)F [Compound 251, N1-(4-fluorobicyclo-[2.2.2]octan-1-yl)-N2-((S)-4-methyl-1-oxo-1-(((S)-3-oxo-1-((S)-2-oxopyrrolidin-3-yl)-4-(trifluoromethoxy)butan-2-yl)amino)pentan-2-yl)oxalamide] | < 0.05 µM | –
CC(C)C[C@H](NC(=O)C(=O)NC1(C)CCNC1)C(=O)N[C@@H](C[C@@H]1CCNC1=O)C(=O)COC(F)(F)F (stereo partly drawn) [Compound 252, N1-((S)-4-methyl-1-oxo-1-(((S)-3-oxo-1-((S)-2-oxopyrrolidin-3-yl)-4-(trifluoromethoxy)butan-2-yl)amino)pentan-2-yl)-N2-(3-methylpyrrolidin-3-yl)oxalamide] | 0.2 to 0.5 µM | –
CC(C)C[C@H](NC(=O)C(=O)NC1(CF)CC1)C(=O)N[C@@H](C[C@@H]1CCNC1=O)C(=O)COC(F)(F)F [Compound 254, Nl-(l-(fluoromethyl)-cyclopropyl)-N2-((S)-4-methyl-1-oxo-1-(((S)-3-oxo-1-((S)-2-oxopyrrolidin-3-yl)-4-(trifluoromethoxy)butan-2-yl)amino)pentan-2-yl)oxalamide] | < 0.05 µM | –
COc1cccc2c1OC(C(=O)N[C@@H](CC(C)C)C(=O)N[C@@H](C[C@@H]1CCNC1=O)C(=O)COC(F)(F)F)C2 (stereo partly drawn) [Compound 255, 7-methoxy-N-((S)-4-methyl-1-oxo-1-(((S)-3-oxo-1-((S)-2-oxopyrrolidin-3-yl)-4-(trifluoromethoxy)butan-2-yl)amino)pentan-2-yl)-2,3-dihydrobenzofuran-2-carboxamide] | < 0.05 µM | –
